MIC and Ratio data for 4 compounds are collected here from ChEMBL document CHEMBL4359928, “Scaffold Morphing To Identify Novel DprE1 Inhibitors with Antimycobacterial Activity” (ACS Med Chem Lett, 2019).

In brackets after ≈: the same amount, converted by molar mass.

Common to all, as to assay type: functional
Assay [1] deals with Mycobacterium tuberculosis. Description: Antimycobacterial activity against 1,4-azaindole resistant Mycobacterium tuberculosis H37Rv harbouring DprE1 Y314H mutant assessed as reduction in bacterial cell growth.
Assay [2] deals with Mycobacterium tuberculosis. Description: Antimycobacterial activity against Mycobacterium tuberculosis H37Rv overexpressing DprE1 assessed as reduction in bacterial cell growth.
The subject of assay [3] is Mycobacterium tuberculosis. Description: Antimycobacterial activity against BTZ043-resistant Mycobacterium tuberculosis H37Rv harbouring DprE1 C387G mutant assessed as reduction in bacterial cell growth.
Assay [4] has as its system Mycobacterium tuberculosis. Description: Antimycobacterial activity against BTZ043-resistant Mycobacterium tuberculosis H37Rv harbouring DprE1 C387S mutant assessed as reduction in bacterial cell growth.
Assay [5] relates to Mycobacterium tuberculosis. Description: Antimycobacterial activity against Mycobacterium tuberculosis H37Rv harbouring DprE1 Y314S mutant assessed as reduction in bacterial cell growth.
The test system of assay [6] is Mycobacterium tuberculosis. Description: Ratio of MIC for 1,4 azaindole-resistant Mycobacterium tuberculosis H37Rv harboring DprE1 Y314H mutant to MIC for wild type Mycobacterium tuberculosis H37Rv.
Assay [7] concerns Mycobacterium tuberculosis. Description: Ratio of MIC for Mycobacterium tuberculosis H37Rv overexpressing DprE1 to MIC for wild type Mycobacterium tuberculosis H37Rv.
Setting [8] is: Mycobacterium tuberculosis, H37Rv, read-out: MIC.

In general, MIC refers to the lowest concentration that inhibits growth of the organism. Regarding `C[C@H]1COC2(CCN(c3nc(=O)c4cc(C(F)(F)F)cc([N+](=O)[O-])c4s3)CC2)O1` [BTZ-043], the minimum inhibitory concentration (MIC) was found to be 0.003 µM (≈ 0.00129 µg/mL) in assay [1]; 12.5 µM (≈ 5.39 µg/mL) in assay [2]; 25 µM (≈ 10.8 µg/mL) in assay [3]; 25 µM (≈ 10.8 µg/mL) in assay [4]; 0.006 µM (≈ 0.00259 µg/mL) in assay [5].

For `CO[C@H]1/C=C/O[C@@]2(C)Oc3c(C)c(O)c4c(O)c(c(/C=N/N5CCN(C)CC5)c(O)c4c3C2=O)NC(=O)/C(C)=C\C=C\[C@H](C)[C@H](O)[C@@H](C)[C@@H](O)[C@@H](C)[C@H](OC(C)=O)[C@@H]1C` [RIFAMPIN], the minimal inhibitory concentration (MIC) in assay [2] (setting [8]), in assay [3] and in assay [4] was 0.005 µM (≈ 0.00411 µg/mL) each time.

On to `COc1ncnc(Cn2cnc3c(C(=O)NCCF)cccc32)c1C`, for which the Ratio in assay [6] and in assay [7] was 20 each time. In addition, the minimal inhibitory concentration (MIC) was 25 to 50 µM in assay [1]; 25 to 50 µM (≈ 8.58 to 17.2 µg/mL) in assay [2] (setting [8]); 0.78 µM (≈ 0.268 µg/mL) in assay [3]; 0.78 µM (≈ 0.268 µg/mL) in assay [4]; 25 µM (≈ 8.58 µg/mL) in assay [5].

For the compound `NNC(=O)c1ccncc1` [ISONIAZID], the MIC in assay [1] worked out at 0.44 µM (≈ 0.0603 µg/mL); in assay [2] (setting [8]), 0.22 µM (≈ 0.0302 µg/mL); in assay [3], 0.44 µM (≈ 0.0603 µg/mL); in assay [4] it was 0.44 µM (≈ 0.0603 µg/mL); in assay [5], 0.22 µM (≈ 0.0302 µg/mL).
